Experiments:
[1] = system: PBMC from subjects previously immunized with MMR-II vaccine; experiment: T cell proliferation assay ([3H]-thymidine, 3 days, SI cut point 3.0), Example 1; type: cell-based, human
Excerpt: Study participants included ninety-five healthy residents of Olmsted County, Minn., aged 11 to 18 years. […] Mononuclear leukocytes were isolated by Ficoll-Hypaque (Amersham) density gradient centrifugation.
For descriptive analyses, we used medians and ranges for continuous variables and frequencies for categorical variables. We compared cpm for MV-stimulated, MV-P1-stimulated and MV-P2-stimulated cells with unstimulated cells using Wilcoxon signed rank tests. Associations between the continuously distributed stimulation indices for MV-P1, MV-P2 peptides, and MV were determined using Spearman rank correlation coefficients. Stimulation indices were subsequently dichotomized into positive or negative using a cut point of 3.0. We then compared MV positivity with MV-P1 and MV-P2 positivity using estimates of sensitivity.

[2] = system: PBMC of subjects previously immunized with MMR-II vaccine; experiment: T cell proliferation assay ([3H]-thymidine, 4 days, SI>2 positive), Example 3; conditions: for subjects with stimulation index greater than 2 (positive lymphoproliferative response) / stimulation index, median / stimulation index, range: 131 subjects (MV-P2 130, MV-F 43); for stimulation index, median / stimulation index, range: peptides 20 μg/ml, MV 50 pfu/ml, 4 days
Protocol: Briefly, study participants were enrolled as part of a larger stratified random sample study to assess associations between HLA genes and immune response to measles-mumps-rubella-II (MMR-II) vaccine in healthy, school-age children and young adults (ages 12 to 18 years). To evaluate the cellular responses to measles peptides, 131 subjects were used. In addition, a random subset of 43 individuals was tested for reactivity to a control measles fusion (F) peptide. All enrolled subjects had been previously immunized with two doses of MMR-II vaccine (Merck Research, West Point, Pa.) containing the attenuated Edmonston strain of MV. All but four of these participants were Caucasian and all subjects resided in a geographic area where no wild-type MV had circulated in the community during the subjects' lifetimes.
In brief, peripheral blood mononuclear cells (PBMC) were separated from heparinized blood by Ficoll-Hypaque (Sigma, St. Louis, Mo.) density gradient centrifugation and washed in RPMI 1640 medium (Celox Laboratories, Inc., St. Paul, Minn.) supplemented with 2 mM L-glutamine, 100 μg/ml streptomycin, 100 U/ml penicillin and 8% fetal calf serum (Life Technologies, Gaithersburg, Md.). Measles virus, MV-P1, MV-P2, and MV-F specific T cell responses were measures by proliferation of PBMC (2×10^5) incubated in RPMI-1640 medium, supplemented with 5% autologous sera, with live attenuated MV (50 pfu/ml, positive control) or synthetic peptides (20 μg/ml) compared to unstimulated cell control wells. Phytohemagglutinin (PHA, 5 μg/ml) was used to assess cell vitality. Only assays in which PBMC responded to PHA were accepted. T lymphocyte proliferation was measured after 4 days by [^3H]-tritiated thymidine uptake. Cells were then harvested onto glass fiber filters, using a 96-well harvesting system (Skatron Instruments, Norway). The amount of incorporated radioactivity was determined by a liquid scintillation counter (Packard Instrument Company, Boston, Mass.). We used six replicates of counts per minute (cpm) values for unstimulated cells, and three replicates each for T cells stimulated with peptides and live measles vaccine. For each subject, median cpm were calculated for unstimulated cells, as well as for cells stimulated with MV-P1, MV-P2, MV-F and measles. Results were then expressed as antigen-specific stimulation indices (SI), defined as the ratio of the median cpm of antigen-stimulated wells to the median cpm of unstimulated control wells. […] SI>2 was arbitrarily selected prior to the study as an indication of the presence of reactive peptide specific memory T cells, and SI<2 as an indicator of the lack of memory T lymphocytes to measles-derived peptides (Pauksen, et al., Bone Marrow Transplant 20:317-323, 1997).
Three outcomes were of primary interest: T cell proliferation (as measured by stimulation indices) induced separately by live MV, the MV-P1 peptide, and the MV-P2 peptide variant. Data were descriptively summarized using frequencies and percentages for all categorical variables, and medians and ranges for all continuous variables.

[3] = system: PBMC of subjects previously immunized with MMR-II vaccine; experiment: IL-4 supernatant cytokine response (ELISA) to measles virus and synthetic measles peptides; type: cell-based, human; conditions: for Median secretion value IL-4: stimulated minus control cells
Protocol: (§1) To evaluate the immunogenicity of measles-derived peptides, 281 of these subjects (age 12 to 18 years) were studied.
(§2) Cryopreserved PBMC were used to measure cytokine responses to measles-derived peptides. We thawed cryopreserved PBMC at a concentration of 1×10^7 cells/mL using standard protocol. The vials were rapidly thawed in a 37° C. water bath and then washed twice with 10× volume of complete RPMI 1640 media supplemented with 10% FCS at 700 rpm for 5 minutes. The final cell pellet was resuspended in complete RPMI media containing penicillin-streptomycin (100 U/mL) and supplemented with 5% normal human AB sera (Ervin Sci., Santa Ana, Calif.). For IFN-γ determination, thawed PBMC were cultured at a concentration of 2×10^5 in RPMI containing 5% normal human AB sera with or without measles peptides (10 μg/well) and MV (positive control) at a moi of 0.5 for 6 days. For IL-4 determination in cell culture supernatants, we cultured thawed PBMC at a concentration of 4×10^5 in RPMI media, supplemented with 5% normal human AB sera. Cells were cultured in the presence of 2 μg/mL of IL-4 receptor antibody (R&D Systems, Minneapolis, Minn.) (Ekerfelt, et al., J. Immunol. Methods 260:55-67, 2002) with or without synthetic measles-derived peptides (10 μg/well) and MV (positive control) at a moi of 0.1 for 6 days. Cell culture supernatants were collected in a volume of 150 μl/well for both IFN-γ and IL-4 and were frozen at […] until assayed. The culture supernatants were assayed using a standard ELISA protocol (OptiEtA Human IFN-γ and IL-4, PharMingen, San Diego, Calif.) at a dilution of 1:1 in PBS containing 10% FCS. ELISA plates (Immulon-4, DYNEX Technologies Inc, Chantilly, Va.) were coated with capture IFN-γ or IL-4 mAb and incubated overnight at 4° C. The antibody-coated plates were incubated with diluted supernatant samples for 2 hours at room temperature followed by incubation with biotinylated mouse anti-human IFN-γor IL-4 conjugated to avidin-horseradish peroxidase for 1 hour at room temperature. The absorbance of the product was read using a microplate reader (Molecular Devices, Sunnyvale, Calif.) at 450 nm. The IFN-γ and IL-4 concentration of test samples was calculated by reference to the standard curve. Unstimulated and MV-stimulated secretion measurements for IFN-γ were performed in triplicate, while all other secretion measurements for both IFN-γ and IL-4 were performed in duplicate. Individual-specific values were then summarized by taking means of the duplicate or triplicate values. Mean background levels of IFN-γ and IL-4 cytokine production in cultures not stimulated with measles peptides or MV was subtracted from the mean antigen-induced responses to produce “corrected” secretion values. Negative corrected values indicate that the unstimulated secretion levels were, on average, higher than the stimulated secretion levels.
(§3) Two criteria were established to define positive responses for secreted IFN-γ and IL-4 cytokines using ELISA.

[4] = system: PBMC of subjects previously immunized with MMR-II vaccine; experiment: IFN-γ supernatant cytokine response (ELISA) to measles virus and synthetic measles peptides; type: cell-based, human; conditions: for Median secretion value IFN-γ: stimulated minus control cells
Protocol: as §1, §2, §3

[5] = 95 subjects, peptides 20 μg/ml, MV 50 PFU/well
[6] = 281 subjects, stimulated cells minus unstimulated cells

## MV-F: randomly chosen 14 amino acid control peptide of the MV F protein (PLRHQATTASSTKP) [reference compound]
[1]; irrelevant control peptide, data not shown
  proliferation in immunized healthy subjects: little or no proliferation
[2]
  subjects with stimulation index greater than 2 (positive lymphoproliferative response): 11%
  stimulation index, median: 1
  stimulation index, range: 0-3

## CC[C@H](C)[C@H](NC(=O)[C@H](CCC(=O)O)NC(=O)CNC(=O)CNC(=O)[C@H](CCC(=O)O)NC(=O)[C@H](C)NC(=O)[C@@H](NC(=O)[C@H](CCC(=O)O)NC(=O)[C@@H](NC(=O)[C@H](CC(=O)O)NC(=O)[C@H](CO)NC(=O)[C@H](C)N)C(C)C)[C@@H](C)O)C(=O)N[C@@H](Cc1c[nH]cn1)C(=O)N[C@@H](CCCCN)C(=O)N[C@@H](CC(C)C)C(=O)N[C@@H](CC(C)C)C(=O)N[C@@H](CCCNC(=N)N)C(=O)N[C@@H](CC(C)C)C(=O)N[C@@H](CCC(N)=O)C(=O)O [MV-P2]
[1]; 95 subjects
  subjects with stimulation index greater than 3.0 (recognized): 5%
[1]; [5]
  stimulation index, median: 1.2
  stimulation index, range: 0.5-16.2
[1]; 95 subjects, peptides 20 μg/ml, live attenuated MV 50 PFU/well, 3 days
  median cpm value, lymphoproliferative assay: 359 cpm
[2]
  subjects with stimulation index greater than 2 (positive lymphoproliferative response): 17%
  stimulation index, median: 1.2
  stimulation index, range: 0.4-16.2
[2]; among the 52 subjects who responded to the MV-P1 peptide
  MV-P1 responders who also responded to the peptide: 23%

## SAGKVSSTLASELG [MV-N]
[3]; 281 subjects, peptides 10 μg/well, MV moi 0.1, 6 days
  IL-4 % Response (>10 pg/mL): 23.1%
[3]; [6]
  IL-4 Median level: 2.8 pg/mL
[3]; All other HLA-DRB1 alleles
  Median secretion value IL-4: -0.5 pg/mL
[3]; HLA-DRB1 allele *0101
  Median secretion value IL-4: 4.3 pg/mL
[3]; HLA-DRB1 allele *0102
  Median secretion value IL-4: 4.6 pg/mL
[3]; HLA-DRB1 allele *0103
  Median secretion value IL-4: 1.3 pg/mL
[3]; HLA-DRB1 allele *0301
  Median secretion value IL-4: 2.8 pg/mL
[3]; HLA-DRB1 allele *0401
  Median secretion value IL-4: 4.3 pg/mL
[3]; HLA-DRB1 allele *0402
  Median secretion value IL-4: -1.0 pg/mL
[3]; HLA-DRB1 allele *0404
  Median secretion value IL-4: 0.0 pg/mL
[3]; HLA-DRB1 allele *0407
  Median secretion value IL-4: 4.6 pg/mL
[3]; HLA-DRB1 allele *0701
  Median secretion value IL-4: 1.7 pg/mL
[3]; HLA-DRB1 allele *0801
  Median secretion value IL-4: 1.7 pg/mL
[3]; HLA-DRB1 allele *0901
  Median secretion value IL-4: -1.6 pg/mL
[3]; HLA-DRB1 allele *1001
  Median secretion value IL-4: 2.1 pg/mL
[3]; HLA-DRB1 allele *1101
  Median secretion value IL-4: 4.4 pg/mL
[3]; HLA-DRB1 allele *1103
  Median secretion value IL-4: 15.5 pg/mL
[3]; HLA-DRB1 allele *1104
  Median secretion value IL-4: 4.4 pg/mL
[3]; HLA-DRB1 allele *1201
  Median secretion value IL-4: 5.4 pg/mL
[3]; HLA-DRB1 allele *1301
  Median secretion value IL-4: 3.6 pg/mL
[3]; HLA-DRB1 allele *1302
  Median secretion value IL-4: 2.2 pg/mL
[3]; HLA-DRB1 allele *1303
  Median secretion value IL-4: -12.9 pg/mL
[3]; HLA-DRB1 allele *1401
  Median secretion value IL-4: 3.7 pg/mL
[3]; HLA-DRB1 allele *1501
  Median secretion value IL-4: 3.2 pg/mL
[3]; HLA-DRB1 allele *03011
  Median secretion value IL-4: 1.7 pg/mL
[3]; Overall (281)
  Median secretion value IL-4: 2.8 pg/mL
[3]; among the 54 subjects who responded to the MV-P peptide
  MV-P IL-4 responders in whom peptide-specific IL-4 responses were also detected: half
[3]; among the 143 subjects with IL-4 production from MV-stimulated PBMC
  MV IL-4 responders who also responded to the peptide: 28.7%
[4]; 281 subjects, peptides 10 μg/well, MV moi 0.5, 6 days
  IFN-γ % Response (>20 pg/mL): 15.3%
[4]; [6]
  IFN-γ Median level: 1.9 pg/mL
[4]; All other HLA-DRB1 alleles
  Median secretion value IFN-γ: 4.1 pg/mL
[4]; HLA-DRB1 allele *0101
  Median secretion value IFN-γ: -1.8 pg/mL
[4]; HLA-DRB1 allele *0102
  Median secretion value IFN-γ: 7.6 pg/mL
[4]; HLA-DRB1 allele *0103
  Median secretion value IFN-γ: 2.4 pg/mL
[4]; HLA-DRB1 allele *0301
  Median secretion value IFN-γ: 1.8 pg/mL
[4]; HLA-DRB1 allele *0401
  Median secretion value IFN-γ: -0.7 pg/mL
[4]; HLA-DRB1 allele *0402
  Median secretion value IFN-γ: 10.6 pg/mL
[4]; HLA-DRB1 allele *0404
  Median secretion value IFN-γ: 2.8 pg/mL
[4]; HLA-DRB1 allele *0407
  Median secretion value IFN-γ: 8.4 pg/mL
[4]; HLA-DRB1 allele *0701
  Median secretion value IFN-γ: -1.1 pg/mL
[4]; HLA-DRB1 allele *0801
  Median secretion value IFN-γ: 4.1 pg/mL
[4]; HLA-DRB1 allele *0901
  Median secretion value IFN-γ: 3.1 pg/mL
[4]; HLA-DRB1 allele *1001
  Median secretion value IFN-γ: -1.8 pg/mL
[4]; HLA-DRB1 allele *1101
  Median secretion value IFN-γ: -4.4 pg/mL
[4]; HLA-DRB1 allele *1103
  Median secretion value IFN-γ: 3.0 pg/mL
[4]; HLA-DRB1 allele *1104
  Median secretion value IFN-γ: 3.1 pg/mL
[4]; HLA-DRB1 allele *1201
  Median secretion value IFN-γ: -4.5 pg/mL
[4]; HLA-DRB1 allele *1301
  Median secretion value IFN-γ: 2.2 pg/mL
[4]; HLA-DRB1 allele *1302
  Median secretion value IFN-γ: -1.9 pg/mL
[4]; HLA-DRB1 allele *1303
  Median secretion value IFN-γ: 13.1 pg/mL
[4]; HLA-DRB1 allele *1401
  Median secretion value IFN-γ: 0.2 pg/mL
[4]; HLA-DRB1 allele *1501
  Median secretion value IFN-γ: 4.1 pg/mL
[4]; HLA-DRB1 allele *03011
  Median secretion value IFN-γ: 9.1 pg/mL
[4]; Overall (281)
  Median secretion value IFN-γ: 1.9 pg/mL
[4]; among the 157 subjects who responded to the MV-P peptide
  MV-P IFN-γ responders who also produced IFN-γ to the peptide: 21%
[4]; among the 185 subjects who responded to MV
  MV IFN-γ responders who also produced IFN-γ to the peptide: 21.1%

From patent US8221762B2, “Naturally processed measles virus peptides from class II HLA molecules” (priority 2004, dated 2012)
